# Experimental data: patent publication US8193175B2, “Ruthenium complexes for treating cancers” (Universite de Strasbourg, priority 2004, dated 2012)
# What was measured:
# TK6 and NH32 lines = test: Compared proliferation of lines TK6 and NH32; format: cell-based, human
# Method: The influence of the p53 protein upon the effects induced by the products was determined by using the human lymphoblastoid line TK6 (p53 wild-type) and its NH32 variant of which the p53 gene was totally inactivated by double homologous recombination (Chuang et al, 1999). The TK6 cells originate from the American Tissue Culture Collection (ATGC, Manassas, Va., USA). The NH32 cells were supplied by H. L. Liber (Chuang et al, 1999).
# (§1) All of these cells are cultivated in RPMI 1640-Glutamax, supplemented by 10% calf foetal serum heat inactivated at 56° C. for 30 minutes, 1 mM sodium pyruvate, 1 mM non-essential amino acids and 50 μg/mL gentamycine (Life Technologies, Cergy Pontoise, France). The cultures are kept in an incubator at 37° C. with a moisture saturated atmosphere, with 5% CO2.
# This test uses the UptiBlue reagent (Interchim, Montluçon, France), metabolised by the living cells. The cells are incubated on plates with 96 wells with 10^4 cells/well (200 μL) with the product and cultivated for 72 hours. Then, 20 μL UptiBlue are added to each well. After 3 hours incubation, the fluorescence of the samples contained in the plates is measured at 590 nm (excitation at 560 nm), using a Fluorolite 1000 microplate reader (Dynex technologies, Issy-Les-Moulineaux, France). […]
# A172 glioblastoma cells = test: Nucleus morphology and caspase 3 activation in A172 cells; format: cell-based, human; details: cisplatinum 15 μM, CDR6 15 μM, CDR9 15 μM
# From the text: FIG. 2: A—The A172 cells were cultivated on glass slides. […] The cells were then fixed in 4% paraformaldehyde, permeabilised with 0.1% NP40 and marked with Hoechst dye (blue) and the anti-p20 antibody (active fragment of caspase 3, in red). The cells were then observed under the fluorescence microscope. B—Graphic representation of the number of cells with an apoptotic, fragmented or condensed nucleus. The bars are an average of two slides from one experiment representative of 3 carried out. C—In parallel, proteic extracts were prepared from cells treated with various drugs (cisplatinum 15 μM; CDR225 μM; CDR615 μM; CDR915 μM) and following denaturation the extracts were deposited on a !0% SDS-Page gel. After migration, the proteins were transferred onto nitrocellulose (Biorad, 0.2 μm) and the p20 fragment of the caspase 3 was detected by Western blot with an anti-p20 antibody (1/1000, R&D System).
# The first step towards characterising the anticancerous effects of the compounds derived from ruthenium consists of testing their activity on tumoral lines kept in culture and comparing these effects on lines which have different characteristics as regards resistance to the anticancer treatments. Two lines of human glioblastomas (A172, HS683) and two lines of neuroblastomas (N2A and SH5Y) were used in order to test the cytostatic effects of the compounds according to the invention. Cisplatinum was chosen as the cytotoxic comparison agent. In a first approach, an MTT test was used to measure the activity of a mitochondrial enzyme, and this gives an estimate of the number of cells. Then, the cytotoxic effects of the compounds according to the invention were characterised in greater detail by analysing the morphology of the nucleus and the activation of caspase 3—two markers of cell apoptosis.
# HL-60 = test: Proliferation test (UptiBlue) on HL-60; format: cell-based, human
# Method: The products are tested on different cell lines. The cells used are RDM4 from a murine T lymphoma and a MOLT-4 line originating from an acute lymphoblastic leukemia. These cancer lines both express the p53 protein, unlike the HL-60 cells from a human promyelocytary leukemia where, following deletion of its gene, p53 is absent.
# as §1
# This test uses the UptiBlue reagent (Interchim, Montluçon, France), metabolised by the living cells. The cells are incubated on plates with 96 wells with 10^4 cells/well (200 μL) with the product and cultivated for 72 hours. Then, 20 μL UptiBlue are added to each well. After 3 hours incubation, the fluorescence of the samples contained in the plates is measured at 590 nm (excitation at 560 nm), using a Fluorolite 1000 microplate reader (Dynex technologies, Issy-Les-Moulineaux, France).
# This sensitivity is reversed with the Ru complex. […] These latter, which have a normal p53 gene, are less sensitive to the Ru complex. […]
# RDM4 cells = test: Chemo-radiotherapeutic association on RDM4 cells (cell counting, propidium iodure apoptosis); format: cell-based, mouse; details: for proliferation of non-irradiated RDM4 cells (cell counting): cisplatinum 0.7 μM, ruthenium derivative 10 μM, no irradiation; for proliferation of RDM4 cells, compound plus ionising radiation: 4 Gy rapid neutrons plus compound 11 (10 μM)
# Method: Cells of this same line are treated with concentrations of 0.7 μM cisplatinum and 15 μM complex 11. 24 hours after the start of the treatment, the cells are irradiated at 4 Gy with rapid neutrons. The effects of the chemo-radiotherapeutic association are then determined by simple cell counting, measuring the concentration of cells in the medium during treatment 24 hrs, 72 hrs and 168 hrs after irradiation.
# Evaluation of the effects of a combined “ionising radiation+RDC-11” treatment upon proliferation and survival of the RDM4 murine cells. These cells originate from an AKR mouse lymphoma. The different tests were carried out in vitro, and five independent experiments were carried out.
# The radiations used were rapid neutrons originating from the collision of 65 MeV protons on a Beryllium target (produced at the Cyclotron, Louvain la Neuve (LLN) in Belgium). The results of just one of these experiments which is representative of a set of three experiments carried out with this type of radiation are shown.
# The RDM4 cells are adjusted to 50,000 cells/ml, in RPMI 1640 culture medium to which 10% foetal calf serum is added. 4 25 cm2 culture flasks are filled with cell suspension, at the rate of 10 ml/flask, i.e. 500,000 cells/flask.
# Four flasks are prepared thus, each corresponding to a different experimental group: • Group 1: non-irradiated, untreated cells (Et/NI in FIG. 9) • Group 2: non-irradiated cells, treated with RDC-11 (RDC-11/NI in FIG. 9) • Group 3: irradiated, non-treated cells (Et/4 Gy in FIG. 9) • Group 4: irradiated cells, treated with RDC-11 (RDC-11/4 Gy in FIG. 9)
# RDC-11, prepared from an ethanolic solution, is added to the cells (flask 2 and 4) 6 hours before irradiation. An identical volume of ethanol (Et, 66 μl) is added to flasks 1 and 3. The final concentration of RDC-11 is 10 μM, and the medium is not replaced over the 9 days of the experiment.
# Flasks 3 and 4 are irradiated with 4 Gy, at ambient temperature, then returned to culture at 37° C.
# On the days following irradiation, aliquots of cell suspensions are regularly taken. The number of cells is determined using a Coulter Counter. Other cells are fixed in ethanol, then marked with propidium iodure, in order to determined the percentage apoptosis.
Compound,proliferation of TK6 (p53 wild-type) compared with NH32 (p53-/-) (TK6 and NH32 lines),proteic levels of the active fragment of caspase 3 (Western blot) (A172 glioblastoma cells),IC50 (HL-60; p53-deficient line) [nM],proliferation of non-irradiated RDM4 cells (cell counting) (RDM4 cells),"growth inhibition, HL-60 compared with MOLT-4 (HL-60; p53-deficient HL-60 vs MOLT-4 with normal p53)","proliferation of RDM4 cells, compound plus ionising radiation (RDM4 cells)","proliferation of RDM4 cells, compound plus ionising radiation (RDM4 cells; listed as RDC-11)",effect of the combination with irradiation (RDM4 cells; RDC-11 10 μM plus 4 Gy),"percentage of cells in apoptosis (propidium iodure), co-treatment (RDM4 cells; RDC-11 10 μM plus 4 Gy, three days after start)"
"N.N.[Cl][Pt][Cl] [Cisplatinum, reference compound]",more significant effect upon the p53+/+ cells than upon the p53-deficient cells,increasing the proteic levels of the active fragment of caspase 3,1000,inhibits proliferation more effectively than the ruthenium derivative,–,–,–,–,–
[Ru(C6H4-2-C5H4N)(phen)(NCMe)2]PF6 [Compound 11],can be superposed,–,–,negligible,more significant for HL-60s than for MOLT-4s,cell proliferation practically zero,cell growth is significantly slowed down,supra-additive effect,greater than the sum of treatments taken separately
